Source: article PMC6680932, “Structure–Antioxidant–Antiproliferative Activity Relationships of Natural C7 and C7–C8 Hydroxylated Flavones and Flavanones” (Antioxidants, 2019)
Read-outs that look alike come from different tables or passages of the source.

Assays:
[1] = Stability of flavonoids in DMSO (control), HPLC; assay type: physicochemical; settings: 3 h of incubation
Method: (§1) Flavonoids were dissolved (as described in Section 2.4) to the concentration of 100 µg/mL. The solutions corresponding to the solutions before the administration to the cell cultures were incubated in 96-well plates for 3 h and transferred to microtubes containing 400 µL of cold methanol (−20 °C) and kept at −20 °C for 1 h. After centrifugation at 12,000× g for 10 min, samples were analyzed by HPLC. Control experiments were also carried out to determine the stability of flavonoids in DMSO under analogous conditions.

[2] = Stability of flavonoids before administration to the cell cultures (diluted in RPMI 1640/Opti-MEM medium), HPLC; assay type: physicochemical; settings: 100 µg/mL, medium with 2 mM L-glutamine, 5% fetal bovine serum, penicillin, streptomycin; 3 h incubation
Method: (§2) Tested compounds were dissolved in DMSO and then diluted in a 1:1 (v/v) mixture of RPMI 1640 (HIIET, PAS, Wroclaw, Poland) and Opti-MEM (Gibco, Scotland, UK) medium supplemented with 2 mM L-glutamine (Sigma-Aldrich, Poznan, Poland), 5% fetal bovine serum (GE Healthcare), 100 units/mL penicillin (Polfa Tarchomin S.A., Warsaw, Poland), and 100 µg/mL streptomycin (Sigma-Aldrich, Poznan, Poland). The antiproliferative effects of the flavonoids were examined after 72 h of exposure of the cultured cells to varying concentrations of the tested agents (from 0.1 to 100 μg/mL) using the MTT (for MV-4-11 cells) or SRB assay described below. Cisplatin (chemotherapy drug used to treat a number of cancers) was used as a positive control. The results are presented as an inhibitory concentration 50 (IC50), which is the concentration of the tested agent that inhibits proliferation of the cell population by 50%. IC50 values for each experiment were calculated separately.
as §1

[3] = system: LoVo/DX (colon cancer doxorubicin-resistant); experiment: Antiproliferative activity in vitro, SRB assay; assay type: cell-based, human; settings: Homo sapiens, LoVo/DX, 72 h exposure, read-out: IC50 ± SD LoVo/DX
[4] = system: MV-4-11 (biphenotypic B myelomonocytic leukemia); experiment: Antiproliferative activity in vitro, MTT assay; assay type: cell-based, human; settings: Homo sapiens, MV4-11, 72 h exposure, read-out: IC50 ± SD MV-4-11
[5] = ABTS radical cation decolorization assay; settings: 6 min incubation, 734 nm; mean ± SD
Method: (§3) The antioxidant capacity of flavonoids was measured in three separate tests: ABTS, DPPH, and ferric ion reducing antioxidant power (FRAP) assays (ABTS, DPPH, and FRAP reagents from Sigma-Aldrich). All tested compounds were dissolved in DMSO. All determinations were performed in triplicate. Standard curves were prepared for all assays using different concentrations of Trolox (6-hydroxy-2,5,7,8-tetramethylchroman-2-carboxylic acid) (Sigma-Aldrich). Trolox is a water-soluble analogue of vitamin E with high antioxidant activity, commonly used as a control and a reference in studies of antioxidant activity. The results were expressed as the equivalent of μmol Trolox per μmol of the test compound. The absorbance was measured using a UV-2401 PC spectrophotometer (Shimadzu, Kyoto, Japan). Concentrations of the tested samples were in the range from 50 µg/mL to 10 mg/mL.
The radical cation scavenging capacity of the tested compounds was examined against ABTS^+ (2,2’-azino-bis(3-ethylbenzo-thiazoline-6-sulfonic acid) according to the procedure described by Re et al. with some modifications. The test sample (30 μL) of known concentration was mixed in a polystyrene cuvette with 3 mL of ABTS solution with a measured absorption of 0.700 at a wavelength of λ = 734 nm. After 6 min of incubation, the absorption of samples was recorded. The ABTS reagent was freshly prepared before each experiment.

[6] = system: DU 145 (prostate cancer); experiment: Antiproliferative activity in vitro, SRB assay; assay type: cell-based, human; settings: Homo sapiens, DU-145; 72 h exposure, SRB; read-out: IC50 ± SD DU 145
[7] = system: HLMEC (lung microvascular endothelial cells); experiment: Antiproliferative activity in vitro, SRB assay; assay type: cell-based, human; settings: Homo sapiens, Endothelial cell; 72 h exposure, SRB; normal cell line; read-out: IC50 ± SD HLMEC
Method: (§4) The antiproliferative studies were performed in vitro using human cancer cell lines—MV-4-11 (biphenotypic B myelomonocytic leukemia), MCF7 (breast carcinoma), LoVo (colon cancer), LoVo/DX (colon cancer doxorubicin-resistant), and DU 145 (prostate cancer)—and normal human cell lines—MCF 10A (breast cells) and HLMEC (lung microvascular endothelial cells). The cell lines MV-4-11, LoVo, DU 145, and MCF 10A were obtained from the American Type Culture Collection (Rockville, Maryland, USA), MCF7 from the European Collection of Authenticated Cell Cultures (ECACC, Salisbury, UK), LoVo/DX courtesy of Professor E. Borowski (Technical University of Gdansk, Poland), and HLMECs (which had been already immortalized by transfection with pSV3-neoplasmid containing large T-antigen gene) were the kind gift of Professor Claudine Kieda (Center for Molecular Biophysics, Orleans, France). The cell lines are being maintained in the Hirszfeld Institute of Immunology and Experimental Therapy, Polish Academy of Sciences (HIIET, PAS), Wroclaw, Poland. All cell lines were grown at 37 °C with 5% CO2 humidified atmosphere. The MV-4-11 cells were cultured in RPMI 1640 medium with GlutaMAX (Gibco, Scotland, UK), supplemented with 1 mM sodium pyruvate and 10% fetal bovine serum (both from Sigma-Aldrich, Poznan, Poland). The MCF7 cells were cultured in Eagle medium (HIIET, PAS, Wroclaw, Poland) supplemented with 2 mM L-glutamine, 10% fetal bovine serum, 1% nonessential amino acid solution, and 0.8 mg/L of insulin (all from Sigma-Aldrich, Poznan, Poland). The LoVo and LoVo/DX cells were cultured in a 1:1 (v/v) mixture of RPMI 1640 and Opti-MEM (both HIIET, PAS, Wroclaw, Poland), supplemented with 1 mM sodium pyruvate, 2 mM L-glutamine, and 5% fetal bovine serum (all from Sigma-Aldrich, Poznan, Poland). For LoVo/DX cells, additionally 10 µg/100 mL of doxorubicin (Accord Healthcare) was added to the medium. DU 145 cells were cultured in Eagle medium (HIIET, PAS, Wroclaw, Poland) supplemented with 1 mM sodium pyruvate, 4 mM L-glutamine, and 10% fetal bovine serum (all from Sigma-Aldrich, Poznan, Poland). The MCF 10A cells were cultured in the F-12 nutrient mixture (Gibco, Scotland, UK), supplemented with 5% horse serum (Gibco, Scotland, UK), 0.05 μg/mL of cholera toxin (Vibrio cholerae), 0.5 μg/mL of hydrocortisone, 10 μg/mL of insulin, and 20 ng/mL of human epidermal growth factor (all from Sigma-Aldrich, Poznan, Poland). The HLMEC cells were cultured in the RPMI 1640 medium (HIIET, PAS, Wroclaw, Poland) with the addition of 2 mM L-glutamine (Sigma-Aldrich, Poznan, Poland) and 10% fetal bovine serum (GE Healthcare). All culture media were supplemented with 100 units/mL penicillin (Polfa Tarchomin S.A., Warsaw, Poland) and 100 µg/mL streptomycin (Sigma-Aldrich, Poznan, Poland). Twenty-four hours before addition of the tested agents, the cells were plated in 96-well plates (Sarstedt, Germany) at a density of 1 × 10^4 (1 × 10^3 for HLMEC and 0.75 × 10^4 for MCF7) cells per well in 100 μL of culture medium.
as §2, with “separately. […]” for “separately.”

[8] = system: LoVo (colon cancer); experiment: Antiproliferative activity in vitro, SRB assay; assay type: cell-based, human; settings: 72 h exposure, SRB, read-out: IC50 ± SD LoVo
Method: as §4
as §2, with “separately. […]” for “separately.”

[9] = system: MCF7 (breast carcinoma); experiment: Antiproliferative activity in vitro, SRB assay; assay type: cell-based, human; settings: Homo sapiens, MCF7; 72 h exposure, SRB; read-out: IC50 ± SD MCF7
Method: as §4
as §2, with “separately. […]” for “separately.”

[10] = system: MCF 10A (breast cells); experiment: Antiproliferative activity in vitro, SRB assay; assay type: cell-based, human; settings: Homo sapiens, MCF-10A; 72 h exposure, SRB; normal cell line; read-out: IC50 ± SD MCF 10A
Method: as §4
as §2, with “separately. […]” for “separately.”

[11] = DPPH free radical scavenging activity assay; settings: 10 min, 517 nm; mean ± SD
Method: as §3
The DPPH (2,2-diphenyl-1-picrylhydrazyl) radical scavenging activity of samples was determined according to the method described by Yen and Chen with some modifications. Samples (0.1 mL) of known concentration were mixed in polystyrene cuvettes with 2 mL of 0.04 mM DPPH in ethanol and 0.4 mL of ethanol. The absorbance was measured after 10 min at λ = 517 nm. The DPPH reagent was freshly prepared before each experiment.

[12] = FRAP (ferric ion reducing antioxidant power) assay; settings: 10 min, 593 nm; mean ± SD
Method: as §3
The FRAP method is based on measuring the ability of antioxidants to reduce ferric 2,4,6-tris(2-pyridyl)-1,3,5-triazine [Fe(III)-TPTZ] in the blue colored ferrous form, which absorbs light at λ = 593 nm. The Fe(III)-TPTZ reagent was prepared as a mixture of acetate buffer (pH 3.6), 10 mM TPTZ in 40 mM HCl, and 20 mM FeCl3 in the ratio of 10:1:1 (v/v/v). The FRAP reagent was freshly prepared before each experiment. The samples (0.1 mL) were mixed in polystyrene cuvettes with 3 mL of ferric complex and 0.9 mL of distilled water. The absorbance was measured after 10 min at λ = 593 nm.

compound observed after incubation in DMSO [1] | stability after dilution with 1:1 RPMI 1640/Opti-MEM medium [2] | IC50 [3] | IC50 [4] | IC50 [6] | IC50 ([8]; Homo sapiens, LoVo, 72 h) | IC50 [9] | IC50 [8] | SMILES | TEAC ABTS [5] | IC50 [7] | IC50 [10] | TEAC DPPH [11] | TEAC FRAP [12]
over 99% | complete decomposition |  |  |  |  |  |  | O=C1C[C@@H](c2ccc(O)cc2)Oc2cc(O)c(O)c(O)c21 [Compound 15, 6-hydroxynaringenin] |  |  |  |  | 
 |  | 67 ± 15.8 µM | 99.1 ± 34.1 µM | 119 ± 22.4 µM | 116 ± 10.6 µM | 148 ± 6.57 µM |  | O=C1C[C@@H](c2ccccc2)Oc2cc(O)cc(O)c21 [Compound 5, Pinocembrin] | 0.165 ± 0.009 µmol trolox per µmol of tested | 96.6 ± 7.23 µM | 125 ± 5.77 µM | 0.005 ± 0.001 µmol trolox per µmol of tested | 
over 99% | complete decomposition |  |  |  |  |  |  | O=C1C[C@@H](c2ccc(O)cc2)Oc2c(O)c(O)cc(O)c21 [Compound 14, 8-hydroxynaringenin] |  |  |  |  | 
 |  | 13.7 ± 1.65 µM | 8.73 ± 2.23 µM | 21.9 ± 6.11 µM | 14 to 15 µM | 25.5 ± 6.33 µM | 13.5 ± 0.65 µM | O=c1cc(-c2ccc(O)c(O)c2)oc2cc(O)cc(O)c12 [Compound 3, luteolin] | 16.645 ± 0.897 µmol trolox per µmol of tested | 9.22 ± 0.64 µM | 33.1 ± 10.3 µM | 10.50 ± 0.117 µmol trolox per µmol of tested | 17.686 ± 0.327 µmol trolox per µmol of tested
 |  | 77.2 ± 19.4 µM | 140 ± 12.9 µM | 215 ± 32.1 µM | 104 ± 5.55 µM | 167 ± 13.1 µM |  | COc1ccc([C@@H]2CC(=O)c3c(O)cc(O)cc3O2)cc1O [Compound 8, hesperetin] | 13.254 ± 0.123 µmol trolox per µmol of tested | 98.3 ± 7.62 µM | 207 ± 23.4 µM | 0.098 ± 0.002 µmol trolox per µmol of tested | 4.025 ± 0.175 µmol trolox per µmol of tested
